Reference: ChEMBL document CHEMBL1138495, “Inhibition of subgenomic hepatitis C virus RNA replication by acridone derivatives: identification of an NS3 helicase inhibitor” (J Med Chem, 2009)
Converted amounts (≈) assume the structure as drawn. The source made the active and inactive calls. The calls are words filed in the database; no cut-off is given here.

Legend:
Hepacivirus hominis = assay: Inhibition of HCV recombinant NS5B RNA polymerase expressed in Escherichia coli up to 100 uM by liquid scintillation counter
[1] = Cytostatic activity against human HuH5.2 after 3 days by MTS/PMS assay; assay type: ADME, Huh-5-2; conditions: HuH5.2 cells
Vero [2] = assay: Cytostatic activity against african green monkey Vero cells; assay type: ADME, cell-based; conditions: chlorocebus sabaeus
[3] = Inhibition of ATPase activity of HCV […] expressed in Escherichia coli; parameters: species or system Hepacivirus hominis
Hepatitis C virus = assay: Antiviral activity against HCV infected in human HuH5.2 assessed as inhibition of viral RNA synthesis after 4 days by Steady-Glo-luciferase assay; assay type: functional, organism-based, Hepacivirus hominis; conditions: Huh-5-2, 96 h
Vero [4] = assay: Cytostatic activity against african green monkey Vero cells in presence of guanosine; assay type: ADME, cell-based; conditions: chlorocebus sabaeus
[5] = tested on: Bovine viral diarrhea virus 1; assay: Antiviral activity against Bovine viral diarrhea virus infected in MDBK cells assessed as inhibition of virus-induced cytopathic effect after 4 to 5 days by microscopy; assay type: functional, organism-based; conditions: Bovine viral diarrhea virus isolates and strains
[6] = Cytotoxicity against MDBK cells after 3 days by MTS/PMS method; assay type: cell-based, Bos taurus; conditions: cattle

Row | SMILES | Activity (Hepacivirus hominis) | CC50 at 72 h [1] | Activity (Vero [2]) | IC50 [3] | EC50 (Hepatitis C virus) | Activity (Vero [4]) | EC50 [5] | CC50 at 72 h [6]
1 | COc1cc(OC)c2c(=O)c3ccc(N4CCN(c5ccccn5)CC4)cc3n(C)c2c1 | inactive | > 50 µg/mL | Toxic | > 1000 µM | 2.3 µg/mL (≈ 5.34 µM) | Non-toxic | – | –
2 | COc1cc(OC)c2c(=O)c3cc(N)c(Cl)cc3n(C)c2c1 | inactive | > 50 µg/mL | – | > 1000 µM | 20 µg/mL (≈ 62.7 µM) | – | > 100 µg/mL | 20 µg/mL (≈ 62.7 µM)
3 | COc1cc(O)c2c(=O)c3cc(N)c(N4CCN(c5ccccn5)CC4)cc3n(C)c2c1 | inactive | > 50 µg/mL | – | > 1000 µM | 13 µg/mL (≈ 30.1 µM) | – | 4 µg/mL (≈ 9.27 µM) | > 100 µg/mL
4 | COc1cc(OC)c2c(=O)c3cc(N)c(N4CCN(c5ccccc5)CC4)cc3n(C)c2c1 | inactive | 34 µg/mL (≈ 76.5 µM) | – | > 1000 µM | 9 µg/mL (≈ 20.2 µM) | – | – | –
5 | Cn1c2cc(N3CCN(c4ccccc4)CC3)c(N)cc2c(=O)c2c(O)cc(O)cc21 | inactive | 16.2 µg/mL (≈ 38.9 µM) | – | > 1000 µM | 4.4 µg/mL (≈ 10.6 µM) | – | – | –
6 | COc1cccc2c1c(=O)c1cc(N)c(N3CCN(c4ccccn4)CC3)cc1n2C | inactive | 28.5 µg/mL (≈ 68.6 µM) | – | > 1000 µM | 12.5 µg/mL (≈ 30.1 µM) | – | – | –
7 | COc1cc(O)c2c(=O)c3cc(N)c(Cl)cc3n(C)c2c1 | inactive | 41 µg/mL (≈ 135 µM) | – | > 1000 µM | 14 µg/mL (≈ 45.9 µM) | – | 0.7 µg/mL (≈ 2.3 µM) | 14 µg/mL (≈ 45.9 µM)
8 | COc1cc(OC)c2c(=O)cc(-c3ccc(N4CCN(c5ccccn5)CC4)c(N)c3)n(C)c2c1 | inactive | > 50 µg/mL | – | > 1000 µM | > 50 µg/mL | – | – | –
9 | Cc1cc(C)c2c(=O)c3cc(N)c(N4CCN(c5ccccn5)CC4)cc3n(C)c2c1C | inactive | > 50 µg/mL | – | > 1000 µM | 5 µg/mL (≈ 11.7 µM) | – | – | –
10 | CCCOc1cc(OC)cc2c1c(=O)c1cc(N)c(N3CCN(c4ccccn4)CC3)cc1n2C | inactive | > 50 µg/mL | – | > 1000 µM | 17 µg/mL (≈ 35.9 µM) | – | – | –
11 | COc1cc(OC)c2c(=O)c3cc(N(C)C)c(N4CCN(c5ccccn5)CC4)cc3n(C)c2c1 | inactive | 3 µg/mL (≈ 6.33 µM) | – | > 1000 µM | 1 µg/mL (≈ 2.11 µM) | – | – | –
12 | COc1ccc2c(=O)c3cc(N)c(N4CCN(c5ccccn5)CC4)cc3n(C)c2c1 | inactive | 11 µg/mL (≈ 26.5 µM) | – | > 1000 µM | 0.8 µg/mL (≈ 1.93 µM) | – | – | –
13 | COc1cc(O)c2c(=O)c3cc(N)c(N4CCN(c5ccccc5)CC4)cc3n(C)c2c1 | inactive | 8.5 µg/mL (≈ 19.7 µM) | – | > 1000 µM | 2.03 µg/mL (≈ 4.72 µM) | – | – | –
14 | COc1cc(OC)c2c(=O)c3cc(N)c(N4CCN(c5ccc(C(F)(F)F)cn5)CC4)cc3n(C)c2c1 | inactive | > 50 µg/mL | – | > 1000 µM | > 50 µg/mL | – | – | –
15 | CCn1c2cc(Cl)c(N)cc2c(=O)c2c(O)cc(OC)cc21 | inactive | > 50 µg/mL | – | > 1000 µM | 4.5 µg/mL (≈ 14.1 µM) | – | – | –
16 | COc1cc(OC)c2c(=O)c3cc(F)c(N4CCN(c5ccccn5)CC4)cc3n(C)c2c1 | inactive | > 50 µg/mL | – | > 1000 µM | > 50 µg/mL | – | – | –
17 | COc1cc(O)c2c(=O)c3cc(N)c(Cl)cc3[nH]c2c1 | inactive | > 50 µg/mL | – | > 1000 µM | 8 µg/mL (≈ 27.5 µM) | – | – | –
18 | COc1cc(OC)cc(N(C)c2ccc(N)c(N3CCN(c4ccccn4)CC3)c2)c1 | inactive | 7.2 µg/mL (≈ 17.2 µM) | – | > 1000 µM | 4.1 µg/mL (≈ 9.77 µM) | – | – | –
19 | COc1cc(OC)c2c(=O)c3cc(N)c(N4CCN(c5ncccn5)CC4)cc3n(C)c2c1 | inactive | > 50 µg/mL | – | > 1000 µM | > 50 µg/mL | – | – | –
20 | COc1cc(O)c2c(=O)c3cc(N)c(OC)cc3n(C)c2c1 | inactive | > 50 µg/mL | – | > 1000 µM | 18 µg/mL (≈ 59.9 µM) | – | – | –
